From patent publication US20210052537A1, “COLITIS AMELIORATING AGENT” (ASTA PHARMACEUTICALS, CO., LTD., priority 2018, published 2021)
Several values for one entry are separate records, joined by “and”; a condition that tells them apart may be missing. Identical values can stand only once.

What was measured:
[1] = test system: Oxa-induced colitis; test: Oxazolone (Oxa)-induced colitis mouse model; type: in vivo; settings: for Colon length compared with Vehicle group / Colon wet weight compared with Vehicle group: Group Nos. 3 to 6 of Table 7, in words; for Colon length / Colon weight (wet weight per length): 6 days, day 7, mean ± SD
Description: In this Example, mouse models to which oxazolone (4-ethoxymethylene-2-phenyl-2-oxazolin-5-on, hereinafter, Oxa) is used will be described as colitis models. When Oxa was first applied to skin, subsequently administered enterally after a certain period of time, an experimental ulcerative colitis model similar to human ulcerative colitis in terms of not only symptoms such as suppression of body weight increase, blood in stools, and anemia and formation of colon erosion but also immune cells was built (Non-Patent Literature 4). A suppression effect of Compound X on colitis in such a model as the test model showing pathological conditions more similar to human ulcerative colitis was examined. For the examination items, the length and weight of the colon were examined as changes in colon properties are widely known to occur also in this model.
For treatment, Balb/c, male mice were purchased from CHARLES RIVER LABORATORIES JAPAN, INC. in accordance with previous literature (Non-Patent Literature 5) and 8-week old mice with no abnormal general conditions during quarantine and acclimation period were used for the experiment. After acclimation, the animals were divided in such a way as to be 1 mouse per cage. Oxa used in the experiment was purchased from Sigma.
Fur at back of the neck was shaved in an area of 1.5×1.5 cm under anesthesia, and 150 μL (a 100% ethanol solution) of 3% (wt/vol) Oxa was added using a pipette and applied between the shoulders to sensitize (Day 1). The mice were kept under such a typical breeding environment, fasted for 16 hours from Day 7 (water supply was continued), and subsequently on Day 8 100 μL of a solution of 1% (wt/vol) Oxa in 50% ethanol was transanally administered into the rectum (3.5 cm from the anus) using a catheter under anesthesia. Hereinafter, the above treatment is described as Oxa treatment. After treatment, typical feeding breeding was carried out.
Starting on the day following intrarectal administration of Oxa, test substances were orally administered (once daily, for 6 days). 5-Aminosalicylic acid (hereinafter 5-ASA, Tokyo Chemical Industry, Co., Ltd.) and prednisolone (hereinafter, PSL, Sigma), which are anti-inflammatory agents used for treating ulcerative colitis, were used as positive controls for the test. After group division, each of the test substances of Table 6 was suspended in a solution of 0.5% sodium carboxymethyl cellulose (hereinafter, CMC, Nacalai Tesque Inc.) in such a way as to be each treatment of Table 6 and orally administered once daily. […] These control groups, Groups 1 and 2, were orally administered, as the test substance, with the 0.5% CMC solution which was used as the medium.
The test started with 6 mice in Group No. 1 and 9 mice each in Group Nos. 2 to 6. After the treatment started, death of animals in Group Nos. 2 to 6 due to the cause considered enteritis from Oxa treatment was observed and thus 6 mice in Group Nos. 1 and 3, and 5 mice in Group Nos. 2 and 6, and 7 mice in Group Nos. 4 and 5 were finally used for analysis.
(§1) It is generally acknowledged as a known fact that Oxa treatment causes colon tissue changes such as the length of colon is shortened while the weight increases. For evaluating the therapeutic effect of Compound X, the length and weight of the colon were measured. The mice were euthanized under anesthesia on day 7 of Oxa treatment and dissected to remove the colon. The removed colon was quickly measured for a length in a relaxed state. Subsequently, feces in the intestinal tract were removed and sufficiently washed with phosphate buffered saline (Wako Pure Chemical Industries, Ltd.) and measured for a wet weight.

[2] = test system: DSS-induced colitis; test: DSS-induced colitis mouse model (experimental ulcerative colitis); type: in vivo; settings: for Fecal scoring average value: score 0-3
Description: In this Example, mouse models to which dextran sulfate sodium salt (DSS) is used will be described as colitis models. When DSS is administered by being mixed in drinking water of the mouse, an experimental ulcerative colitis model similar to human ulcerative colitis in terms of symptoms such as suppression of body weight increase, blood in stools, and anemia and formation of colon erosion and further lacking intestinal lesion was build (Non-Patent Literature 3). A suppression effect of Compound X on colitis in such a model as the representative colitis model was examined. For the evaluation items, recovery from diarrhea and body weight loss by colitis, and the length and weight of the colon were examined as changes in colon properties, which are widely known to occur by DSS-induced colitis.
For treatment, C57BL/6J, male mice were purchased from CHARLES RIVER LABORATORIES JAPAN, INC. in accordance with previous literature (Non-Patent Literature 2) and 5-week old mice with no abnormal general conditions during quarantine and acclimation period were used for the experiment. After acclimation, the animals were divided in such a way as to be 1 mouse per cage. DSS used in the experiment having a molecular weight of from 36,000 to 50,000 Da was purchased from MP Bio Japan. DSS was added to tap water in such a way as to be 3% and suspended for causing colitis. The suspension was prepared once every 3 days and freely provided to each of the mice as water supply. A solution from which DSS was removed was provided as water supply to a non-pathological control group.
After group division, each of the test substances of Table 1 was suspended in a solution of 0.5% sodium carboxymethyl cellulose (hereinafter, CMC, Nacalai Tesque Inc.) in such a way as to be each treatment of Table 1 and orally administered once daily. […] These control groups, Groups 1 and 2, were orally administered, as the test substance, with the 0.5% CMC solution used as the medium.
Drinking water after the group division was typical water for drinking.
The test started with 6 mice in Group No. 1 and 10 mice each in Group Nos. 2 to 6.
Body weights were measured on the DSS administration starting day (day −5), DSS administration last day (day 0), on day 3, day 5, day 8, and day 10 of test substance administration.
The therapeutic effect was evaluated by observing changes in blood in stools caused by enteritis as the body weight recovery alone can be considered that the body weight increase might have been promoted simply by the growth. Mice feces were observed on the DSS administration starting day (day-5), DSS administration last day (day 0), on day 3, day 5, day 8, and day 10 of test substance administration and scored in accordance with the criteria of Table 2.
as §1, with “For” for “It is generally acknowledged as a known fact that Oxa treatment causes colon tissue changes such as the length of colon is shortened while the weight increases. For”, “10” for “7”, “test substance administration” for “Oxa treatment”

[3] = Oxa treatment + 50 mg/kg/day oral, 50 mg/kg/day
[4] = DSS + 50 mg/kg/day oral, day 3, mean ± SD
[5] = DSS + 50 mg/kg/day oral, day 5, mean ± SD
[6] = Oxa treatment + 5 mg/kg/day oral, 5 mg/kg/day

Compound	Colon length compared with Vehicle group [1]	Colon wet weight compared with Vehicle group [1]	Colon length [1, 3]	Colon weight (wet weight per length) [1, 3]	Body weight recovery compared with the DSS administration only ([2]; 50 mg/kg/day oral, in words)	Time-dependent changes in blood feces score versus DSS administration group ([2]; 50 mg/kg/day oral, in words)	Fecal scoring average value ([2]; DSS + 50 mg/kg/day oral, day 0 (DSS last day), mean ± SD)	Body weight [2, 4] [g]	Fecal scoring average value [2, 4]	Body weight [2, 5] [g]	Fecal scoring average value [2, 5]	Fecal scoring average value ([2]; DSS + 50 mg/kg/day oral, day 8, mean ± SD)	Colon length ([2]; DSS + 50 mg/kg/day oral, day 10, mean ± SD, 50 mg/kg/day)	Fecal scoring average value ([2]; DSS + 50 mg/kg/day oral, day 10, mean ± SD)	Fecal scoring average value ([2]; DSS + 50 mg/kg/day oral, day −5 (before test substance), mean ± SD)	Colon length compared with DSS group ([2]; Group Nos. 3 to 5 (1, 10, 100 mg/kg/day) and Group No. 6 (50 mg/kg/day), in words)	Colon wet weight compared with DSS group ([2]; all treated groups of Table 5, in words)	Colon length [1, 6]	Colon weight (wet weight per length) [1, 6]
Nc1ccc(O)c(C(=O)O)c1 [Compound 5-ASA, 5-Aminosalicylic acid, reference compound]	longer length of the colon than Vehicle group	suppressed weight increases compared with Vehicle group	7.41 cm and 7.41 ± 0.37 cm	4.12 mg/mm and 4.12 ± 0.56 mg/mm	significant body weight recovery	did not have a difference	1.0 ± 0.0	15.5 ± 1.0	1.5 ± 0.5	16.4 ± 1.7	1.8 ± 1.0	0.0 ± 0.0	6.54 cm and 6.54 ± 0.29 cm	0.0 ± 0.0	0.0 ± 0.0	longer length of the colon than DSS group	suppressed weight increases compared with DSS group	–	–
C[C@]12C=CC(=O)C=C1CC[C@@H]1[C@@H]2[C@@H](O)C[C@@]2(C)[C@H]1CC[C@]2(O)C(=O)CO [PSL, prednisolone]	longer length of the colon than Vehicle group	suppressed weight increases compared with Vehicle group	–	–	–	–	–	–	–	–	–	–	–	–	–	–	–	8.20 cm and 8.20 ± 0.52 cm	3.37 mg/mm and 3.37 ± 0.36 mg/mm
